Results reported in patent US20250302040A1, “FUNGICIDAL COMBINATIONS OF FLUAZINAM AND USES THEREOF” (priority 2022, published 2025).
≈ marks a conversion by molar mass, not a printed value.

Tests used:
Zymoseptoria tritici = assay: Microtiter plate (MTP) fungal growth assay, optical density, Wadley analysis; format: cell-based; conditions: single active ingredient, OD 590 nm after 5 days at 19° C.
Phytophthora infestans = assay: microbe, parasite or virus in culture; format: cell-based
Venturia inaequalis = assay: Apple scab control on apple leaves (incidence), Colby analysis; conditions: 27 days after application
Description: Here, efficacy or percent inhibition is determined in %.
Efficacy of the fungicidal compositions is evaluated with reference to a scale of 0 to 100% in comparison with untreated control plots. 0 means no control and 100 means complete control of the target disease.
The experiments were conducted by applying commercially available formulations of Fluazinam and other mixture partners, alone or with their tank-mixed compositions. The compositions were diluted with water.
Each formulation with active ingredient is diluted with water and biological efficacy trials on target fungi are conducted.

[1] = Fluazinam 350 g/ha, Fluxapyroxad 75 g/ha, mixture 350 + 75 g/ha

Row | SMILES | EC50 observed (Zymoseptoria tritici) | Observed % control (O) (Venturia inaequalis; [1]) | other results
1 | Cc1ccc(C(=O)OCc2ccc(Oc3ccccc3)cc2)c(N)n1 [Aminopyrifen] | 0.2220 µg/mL (≈ 0.664 µM) | – | –
2 | COc1ccnc(C(=O)N[C@@H](C)C(=O)O[C@@H](C)C(c2ccc(F)cc2)c2ccc(F)cc2)c1OC(C)=O [Florylpicoxamid] | 0.0022 µg/mL (≈ 0.00429 µM) | – | –
3 | O=[N+]([O-])c1cc(C(F)(F)F)c(Cl)c([N+](=O)[O-])c1Nc1ncc(C(F)(F)F)cc1Cl [Fluazinam] | – | 30.50% | EC50 (Zymoseptoria tritici; Zymoseptoria tritici, 120 h, read-out: EC50 observed): 0.257 µg/mL (≈ 0.552 µM); EC50 (Phytophthora infestans; Phytophthora infestans, 120 h, read-out: EC50 observed): 0.528 µg/mL (≈ 1.14 µM)
4 | Cn1cc(C(=O)Nc2ccccc2Oc2ccc(C(F)(F)F)cc2Cl)c(C(F)F)n1 [Flubeneteram] | 0.1221 µg/mL (≈ 0.274 µM) | – | –
5 | Cn1cc(C(=O)Nc2ccccc2-c2cc(F)c(F)c(F)c2)c(C(F)F)n1 [Fluxapyroxad] | – | 27.50% | Observed % control (O) (Venturia inaequalis; Fluxapyroxad 90 g/ha, mixture 350 + 90 g/ha): 43.80%
6 | Cn1nnnc1/C(=N\OCc1cccc(NC(=O)OC(C)(C)C)n1)c1ccccc1 [Picarbutrazox] | – | – | EC50 observed (Phytophthora infestans; single active ingredient, OD 590 nm after 5 days at 19° C.): 0.0026 µg/mL (≈ 0.00635 µM)
